{
  "source": "patent US20110105435A1",
  "about": "“THERAPY OPTION FOR RECOLORATION OF HAIR VIA BISPHOSPHONATES BY PHYSIOLOGICAL REPIGMENTATION WITH AGE-RELATED AND/OR PREMATURE \"GRAYED\" PATIENTS” (priority 2007, published 2011)",
  "test_system": "scalp hair",
  "assay": "Case observation: scalp hair recoloration in a myeloma patient on zoledronate monotherapy",
  "format": "in vivo, human",
  "conditions": "Zometa 4 mg i.v. once monthly",
  "protocol": "[…] Multiple myeloma is a non-Hodgkin lymphoma and represents one of the most frequent malignant bone diseases.\nMultiple myeloma in Stage I according to Durie and Salmon without osteolytic activity was diagnosed in the patient in November 2006. Since Stage I myeloma without clinically relevant symptoms are generally not aggressively treated with cytotostatic substances, the patient was included in an experimental monotherapy scheme applying Zometa® (active ingriedient: zoledronate), 4 mg i.v. in calcium-free infusion solution on a once monthly basis.\nZoledronate treatment is pursued for 6 months with a total of 6 therapy cycles until progression of myeloma (proliferation of plasma cell population in the bone marrow) made a more aggressive therapy approach necessary.\nA suprising side-effect was observed:\nThe patient reported that they were black-haired during their teens and twens.\nSince zoledronate was applied in monotherapy and no other relevant measures were deployed, the surprising change in hair coloration in the respective patient was caused by the bisphosphonate therapy of the underlying myeloma disease.",
  "data": [
    {"smiles": "O=P(O)(O)C(O)(Cn1ccnc1)P(=O)(O)O", "note": "[zoledronate]", "values": [
      {"measurement": "change in hair coloration (repigmentation of white scalp hair)", "setting": "Stage I multiple myeloma patient, completely white-haired at therapy induction, 6 cycles, monotherapy", "result": "increasingly developed black scalp hair"},
      {"measurement": "duration of treatment until white appearance switched to natural-looking dark-greyish shape", "setting": "myeloma patient", "result": "3-4 months"}
    ]}
  ]
}
